Experimental data published in patent US6511798B1, “Methods for the preparation of cell monolayers” (Zeneca Limited, priority 1998, dated 2003).
Where two headings read alike, the source gives them in different places. One block for each molecule: values may come before it.

Columns and labels:
[1] = test system: cell monolayers on BIOCOAT "3 day" system or polycarbonate filters; conditions: cited from earlier work
[2] = target: P-glycoprotein (Homo sapiens, UniProt P08183); conditions: 6 well Biocoat inserts; without verapamil
Sequence of P-glycoprotein (P08183 whole entry): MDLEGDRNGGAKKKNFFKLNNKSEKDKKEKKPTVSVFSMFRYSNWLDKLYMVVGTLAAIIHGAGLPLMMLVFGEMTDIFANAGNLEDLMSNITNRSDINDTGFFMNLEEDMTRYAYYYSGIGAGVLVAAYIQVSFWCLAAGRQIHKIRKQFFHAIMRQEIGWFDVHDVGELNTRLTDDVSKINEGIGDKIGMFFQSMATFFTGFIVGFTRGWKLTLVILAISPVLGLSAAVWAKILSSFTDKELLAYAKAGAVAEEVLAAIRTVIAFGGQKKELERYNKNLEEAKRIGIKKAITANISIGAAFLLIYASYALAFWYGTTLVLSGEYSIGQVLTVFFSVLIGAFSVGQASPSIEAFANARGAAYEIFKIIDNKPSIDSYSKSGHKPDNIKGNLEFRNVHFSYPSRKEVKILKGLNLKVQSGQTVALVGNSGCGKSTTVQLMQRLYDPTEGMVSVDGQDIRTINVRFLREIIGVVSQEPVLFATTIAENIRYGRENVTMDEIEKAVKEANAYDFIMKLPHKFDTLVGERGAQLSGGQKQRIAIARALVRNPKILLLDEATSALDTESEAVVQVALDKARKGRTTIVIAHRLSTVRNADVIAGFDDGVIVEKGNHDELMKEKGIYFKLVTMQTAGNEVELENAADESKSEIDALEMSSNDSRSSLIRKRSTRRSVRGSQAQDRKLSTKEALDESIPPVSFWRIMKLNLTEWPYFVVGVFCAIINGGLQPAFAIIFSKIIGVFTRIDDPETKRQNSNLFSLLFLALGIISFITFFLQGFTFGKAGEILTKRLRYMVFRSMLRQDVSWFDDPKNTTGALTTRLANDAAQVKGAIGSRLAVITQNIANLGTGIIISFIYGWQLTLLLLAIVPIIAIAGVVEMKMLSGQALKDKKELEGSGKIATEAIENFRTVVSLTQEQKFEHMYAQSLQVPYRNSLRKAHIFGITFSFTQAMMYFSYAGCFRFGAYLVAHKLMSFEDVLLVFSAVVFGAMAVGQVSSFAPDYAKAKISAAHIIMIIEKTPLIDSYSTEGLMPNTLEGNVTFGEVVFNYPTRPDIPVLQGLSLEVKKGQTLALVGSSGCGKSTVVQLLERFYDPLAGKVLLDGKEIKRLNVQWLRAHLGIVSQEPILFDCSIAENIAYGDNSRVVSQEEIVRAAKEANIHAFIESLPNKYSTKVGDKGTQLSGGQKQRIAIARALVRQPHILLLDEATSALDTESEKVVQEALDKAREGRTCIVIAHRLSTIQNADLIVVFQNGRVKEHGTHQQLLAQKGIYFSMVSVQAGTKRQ
Experimental: (§1) Solutions of drug for screening are prepared with Hank's Balanced Salts solution (HBSS) buffered to pH7.4 with HEPES. Up to 1% DMSO may be added to aid solubilisation. These drug solutions are added to either the apical (1.5 ml) or the basolateral (3.0 ml) chambers of a 6 well system, and HBSS at pH7.4 is added to the opposite chamber. 0.5 ml samples are taken at regular time intervals from the receiver chamber and the volume replaced with fresh pre-warmed HBSS at pH7.4. A donor sample is taken initially and at the final time point. Samples are analysed using appropriate methods. The volumes are modified accordingly for other plate formats (e.g. 400 μL apical volume, 1 mL basolateral volume for a 24 well plate).

[3] = target: T1, apical di-peptide transporter (Homo sapiens, UniProt P46059); test: Transport of 14C-Gly-sar across Caco-2 monolayers, A-B and B-A; assay type: in vitro ADME; conditions: pH 6 and 7.4
T1 construct: show functional expression of the dipeptide carrier and p-glycoprotein; endogenous in cells; host or cells: Caco-2 (ECACC 86010202)
T1 sequence (P46059 1-708): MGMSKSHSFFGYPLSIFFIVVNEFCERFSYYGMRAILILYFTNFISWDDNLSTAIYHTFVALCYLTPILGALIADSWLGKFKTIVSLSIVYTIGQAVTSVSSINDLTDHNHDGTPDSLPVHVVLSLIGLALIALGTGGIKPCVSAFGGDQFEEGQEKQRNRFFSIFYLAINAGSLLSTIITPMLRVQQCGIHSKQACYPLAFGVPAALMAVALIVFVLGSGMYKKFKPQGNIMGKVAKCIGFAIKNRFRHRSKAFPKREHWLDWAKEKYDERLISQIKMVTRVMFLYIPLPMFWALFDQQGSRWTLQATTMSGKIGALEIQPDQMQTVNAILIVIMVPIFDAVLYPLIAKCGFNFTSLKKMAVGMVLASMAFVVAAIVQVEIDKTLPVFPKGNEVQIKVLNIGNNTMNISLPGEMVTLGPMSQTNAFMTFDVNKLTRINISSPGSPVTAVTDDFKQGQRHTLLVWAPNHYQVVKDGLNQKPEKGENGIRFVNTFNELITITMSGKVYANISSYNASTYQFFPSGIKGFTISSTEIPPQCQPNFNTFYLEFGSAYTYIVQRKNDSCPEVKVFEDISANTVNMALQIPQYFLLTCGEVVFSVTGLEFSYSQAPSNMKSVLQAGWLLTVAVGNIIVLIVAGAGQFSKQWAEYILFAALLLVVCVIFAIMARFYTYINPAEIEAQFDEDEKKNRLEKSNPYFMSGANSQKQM
Experimental: Samples are analysed using appropriate methods.

[4] = in vitro; conditions: human, Caco-2, pH 7.4
Experimental: (§2) This was carried out with the hydrophilic markers, ^14C-mannitol and Lucifer Yellow.
as §1
(§3) The results are expressed as cumulative amount or percentage transported versus time. An absorption apparent permeability coefficient, Papp, can been calculated where: [formula]
(§4) where dQ/dt is the permeability rate (over the linear portion of the curve), C0 is the initial concentration in the donor chamber and A (cm^2) is the surface area of the filter insert supporting the cell monolayer.

[5] = test system: Caco-2 cell monolayer; test: in vitro
Experimental: as §2, §1, §3, §4

[6] = Polycarbonate (1), Artursson et al 1996, 14C-mannitol

Molecule: OC[C@@H](O)[C@@H](O)[C@H](O)[C@H](O)CO [^3H-Mannitol]
Papp [1]: 0.76 cm.s^−1 × 10^6

Molecule: CC[C@]1(O)C[C@@H]2CN(CCc3c([nH]c4ccccc34)[C@@](C(=O)OC)(c3cc4c(cc3OC)N(C)[C@H]3[C@@](O)(C(=O)OC)[C@H](OC(C)=O)[C@]5(CC)C=CCN6CC[C@]43[C@@H]65)C2)C1 [^3H-vinblastine]
transport B to A versus A to B [2]: significantly greater B to A transport

transport A-B versus B-A ([3]; 24 well PET inserts): increased transport in the A-B direction
transport A-B versus B-A ([3]; collagen coated 6 well Biocoat filters): increased transport in the A-B direction
Molecule: CN(CC(=O)O)[14C](=O)CN [^14C-Gly-sar]

Papp at 60 min [4]: ~0.4 ×10⁻⁶ cm/s
Papp ([5]; Caco-2): 0.4 cm.s^−1 × 10^6
% Transported/hour ([5]; human, Caco-2, 1 h, pH 7.4): <0.5%
Average Mannitol Transported ([5]; human, Caco-2, 60 min, pH 7.4): 0.36-0.40%
Molecule: OC[C@@H](O)[C@@H](O)[C@H](O)[C@H](O)CO [^14C-Mannitol, ^14C-mannitol]
Papp ([1]; BIOCOAT "3 day" system, 14C-mannitol): <4.0 cm.s^−1 × 10^6
% Transported/hour [1, 6]: 0.05%
Papp [1, 6]: 0.1-1.0 cm.s^−1 × 10^6
% Transported/hour ([1]; Polycarbonate (3), Taub 1997, 14C-mannitol): 1.5%

% Transported/hour ([5]; Caco-2): 0.13%
Average Lucifer Yellow Transported ([5]; Caco-2): 0.13%
Molecule: Lucifer Yellow
% Transported/hour ([1]; Polycarbonate (4), Hidalgo et al 1989, Lucifer Yellow): 0.11%
